Laboratory results as given in PubChem BioAssay AID1963860 (Molecular Pharmacology Branch, DTP, NCI, 2024).
pIC50: −log10 of the molar value.

System: CN0375-F725-PDC KRAS spheroid viability
Test: Anticancer human tumor CN0375-F725-PDC patient-derived colon carcinoma cell line growth inhibition [KRAS2]
Conditions: spheroids with HUVEC and MSC; for viability, T/C: stronger effect = lower value
Outline: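 KRAS-mutant tumor cells were grown as spheroids with HUVEC endothelial cells and human MSCs as stroma. Targeted agents were tested alone and with KRAS pathway inhibitors. Doses started at or near clinical Cmax, or 10 microM, descending half-log.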

[1] = curve of first compound, second compound 0.1 µM
[2] = curve of first compound, second compound 0.316 µM
[3] = curve of first compound, second compound 1 µM
[4] = curve of first compound, second compound 3.16 µM
[5] = curve of first compound, second compound 10 µM
[6] = second compound 0.1 µM, first compound 0.0316 µM
[7] = second compound 0.1 µM, first compound 0.1 µM
[8] = second compound 0.1 µM, first compound 0.316 µM
[9] = second compound 0.1 µM, first compound 1 µM
[10] = second compound 0.1 µM, first compound 3.16 µM
[11] = second compound 0.1 µM, first compound 10 µM
[12] = second compound 0.316 µM, first compound 0.0316 µM
[13] = second compound 0.316 µM, first compound 0.1 µM
[14] = second compound 0.316 µM, first compound 0.316 µM
[15] = second compound 0.316 µM, first compound 1 µM
[16] = second compound 0.316 µM, first compound 3.16 µM
[17] = second compound 0.316 µM, first compound 10 µM
[18] = second compound 1 µM, first compound 0.0316 µM
[19] = second compound 1 µM, first compound 0.1 µM
[20] = second compound 1 µM, first compound 0.316 µM
[21] = second compound 1 µM, first compound 1 µM
[22] = second compound 1 µM, first compound 3.16 µM
[23] = second compound 1 µM, first compound 10 µM
[24] = second compound 3.16 µM, first compound 0.0316 µM
[25] = second compound 3.16 µM, first compound 0.1 µM
[26] = second compound 3.16 µM, first compound 0.316 µM
[27] = second compound 3.16 µM, first compound 1 µM
[28] = second compound 3.16 µM, first compound 3.16 µM
[29] = second compound 3.16 µM, first compound 10 µM
[30] = second compound 10 µM, first compound 0.0316 µM
[31] = second compound 10 µM, first compound 0.1 µM
[32] = second compound 10 µM, first compound 0.316 µM
[33] = second compound 10 µM, first compound 1 µM
[34] = second compound 10 µM, first compound 3.16 µM
[35] = second compound 10 µM, first compound 10 µM
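Also: spheroids exposed to agents for 7 days.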

Structure (SMILES) | pIC50 [1] | pIC50 [2] | pIC50 [3] | pIC50 [4] | pIC50 [5] | viability, T/C [6] | viability, T/C [7] | viability, T/C [8] | viability, T/C [9] | viability, T/C [10] | viability, T/C [12] | viability, T/C [13] | viability, T/C [14] | viability, T/C [15] | viability, T/C [16] | viability, T/C [18] | viability, T/C [19] | viability, T/C [20] | viability, T/C [21] | viability, T/C [22] | other results
CC1OCC2(CCN(c3cnc(Sc4ccnc(N)c4Cl)c(N)n3)CC2)C1N (configuration not stated) + CNCc1ccccc1-c1csc(C(C)Nc2nc(C)nc3cc(OC)c(OC)cc23)c1 | < 5.00 | < 5.00 | 6.82 | > 7.50 | > 7.50 | 95.7% | 86.1% | 75.8% | 78.5% | 76.3% | 94.2% | 83.7% | 73.7% | 76.2% | 67.2% | 55.3% | 53.7% | 43.7% | 39% | 27.7% | viability, T/C [11]: 61.4%; viability, T/C [17]: 50.5%; viability, T/C [23]: 11.5%; viability, T/C [24]: 0.54%; viability, T/C [25]: 0.29%; viability, T/C [26]: 0.49%; viability, T/C [27]: 0.25%; viability, T/C [28]: 0.31%; viability, T/C [29]: 0.37%; viability, T/C [30]: 0.19%; viability, T/C [31]: 0.41%; viability, T/C [32]: 0.27%; viability, T/C [33]: 0.2%; viability, T/C [34]: 0.53%; viability, T/C [35]: 0.17%
CC1COCCN1c1cc(-c2ccnn2C)c2ccnc(-c3ccn[nH]3)c2n1 (configuration not stated) + CC1OCC2(CCN(c3cnc(Sc4ccnc(N)c4Cl)c(N)n3)CC2)C1N | < 5.50 | < 5.50 | < 5.50 | 5.75 | 6.21 | 91.7% | 84.1% | 77.1% | 67.5% | 56.2% | 92.8% | 74.3% | 72.9% | 65.1% | 51.3% | 82.7% | 73.3% | 70.7% | 62.1% | 48.6% | viability, T/C (second compound 0.1 µM, first compound 0.01 µM): 107%; viability, T/C (second compound 0.316 µM, first compound 0.01 µM): 90.7%; viability, T/C (second compound 1 µM, first compound 0.01 µM): 88.2%; viability, T/C (second compound 3.16 µM, first compound 0.01 µM): 81.4%; viability, T/C [24]: 76.8%; viability, T/C [25]: 68.3%; viability, T/C [26]: 59.3%; viability, T/C [27]: 54.2%; viability, T/C [28]: 46.4%; viability, T/C (second compound 10 µM, first compound 0.01 µM): 69.7%; viability, T/C [30]: 74.8%; viability, T/C [31]: 62.5%; viability, T/C [32]: 53.2%; viability, T/C [33]: 49.2%; viability, T/C [34]: 39.6%
COc1cc2nccc(Oc3ccc(NC(=O)C4(C(=O)Nc5ccc(F)cc5)CC4)cc3)c2cc1OC + COc1cc2nc(C)nc(NC(C)c3cc(N)cc(C(F)(F)F)c3)c2cc1OC1CCOC1 | < 5.00 | 5.17 | 5.42 | 5.98 | > 7.50 | 102% | 99.5% | 89.8% | 79.3% | 56.6% | 100% | 96.6% | 90.2% | 74.8% | 52.6% | 88.4% | 91.6% | 83.8% | 75% | 50.3% | viability, T/C [11]: 59.6%; viability, T/C [17]: 48.7%; viability, T/C [23]: 44.2%; viability, T/C [24]: 76.2%; viability, T/C [25]: 81.6%; viability, T/C [26]: 70.4%; viability, T/C [27]: 52.4%; viability, T/C [28]: 16.7%; viability, T/C [29]: 9.46%; viability, T/C [30]: 15.8%; viability, T/C [31]: 4.08%; viability, T/C [32]: 7.08%; viability, T/C [33]: 16.8%; viability, T/C [34]: 0.92%; viability, T/C [35]: 0.22%
CC(C)NCC(C(=O)N1CCN(c2ncnc3c2C(C)CC3O)CC1)c1ccc(Cl)cc1 (configuration not stated) + CNCc1ccccc1-c1csc(C(C)Nc2nc(C)nc3cc(OC)c(OC)cc23)c1 | < 5.00 | < 5.00 | 6.43 | > 7.50 | > 7.50 | 107% | 103% | 93.1% | 82.6% | 89.5% | 99.4% | 98.2% | 88.5% | 85.2% | 80% | 56.6% | 57.2% | 48.4% | 45.2% | 30.1% | viability, T/C [11]: 78.7%; viability, T/C [17]: 61.8%; viability, T/C [23]: 16%; viability, T/C [24]: 0.23%; viability, T/C [25]: 0.3%; viability, T/C [26]: 0.25%; viability, T/C [27]: 0.28%; viability, T/C [28]: 0.31%; viability, T/C [29]: 0.32%; viability, T/C [30]: 0.14%; viability, T/C [31]: 0.14%; viability, T/C [32]: 0.16%; viability, T/C [33]: 0.14%; viability, T/C [34]: 0.13%; viability, T/C [35]: 0.2%
CC(C)NCC(C(=O)N1CCN(c2ncnc3c2C(C)CC3O)CC1)c1ccc(Cl)cc1 (configuration not stated) + C=CC(=O)N1CCN(c2nc(=O)n(-c3c(C)ccnc3C(C)C)c3nc(-c4c(O)cccc4F)c(F)cc23)C(C)C1 | < 5.00 | < 5.00 | < 5.00 | < 5.00 | < 5.00 | 108% | 106% | 91.4% | 88.9% | 87.8% | 102% | 105% | 92.4% | 89% | 89.6% | 103% | 110% | 98.8% | 86.3% | 84.4% | viability, T/C [11]: 80.1%; viability, T/C [17]: 75.9%; viability, T/C [23]: 77%; viability, T/C [24]: 106%; viability, T/C [25]: 111%; viability, T/C [26]: 101%; viability, T/C [27]: 87.7%; viability, T/C [28]: 84.2%; viability, T/C [29]: 73%; viability, T/C [30]: 101%; viability, T/C [31]: 95.7%; viability, T/C [32]: 88.7%; viability, T/C [33]: 72%; viability, T/C [34]: 71.9%; viability, T/C [35]: 55.7%
Cn1ncnc1[C@H]1c2n[nH]c(=O)c3cc(F)cc(c23)N[C@@H]1c1ccc(F)cc1 | – | – | – | – | – | – | – | – | – | – | – | – | – | – | – | – | – | – | – | – | viability, T/C (compound 0.000316 µM): 107% [middle of 5 runs]; viability, T/C (compound 0.001 µM): 102% [middle of 5 runs]; viability, T/C (compound 0.00316 µM): 99.8% [middle of 5 runs]; viability, T/C (compound 0.01 µM): 101% [middle of 5 runs]; viability, T/C (compound 0.0316 µM): 102% [middle of 5 runs]; viability, T/C (compound 0.1 µM): 96% [middle of 5 runs]; pIC50 (curve of compound): < 7.00
